The record followed here is patent US20080021004A1, “Sapogenin derivatives and their use in the treatment of cognitive dysfunction” (PHYTOPHARM PLC, priority 1999, published 2008).

The subject of this assay is m2 receptors on CHO cells. Kind of assay: Expression of m2 receptors on transfected CHO cells (tritiated QNB binding). In kind it is cell-based, human. The note with it: DMSO control. An excerpt: Sapogenin derivatives of the present invention have also been tested for activity in a number of in-vitro assays. The assays/experiments that were considered of key importance in determining possible activity in the elevation of membrane bound receptor numbers were as follows: • Chinese hamster ovary (CHO) cells transfected with the DNA fragment coding for a muscarinic receptor. The cell line used for the majority of the experiments was a cell line expressing the m2 receptor.
The effects of various compounds on the expression of m2 receptors on CHO cells transfected with DNA for the m2 receptor were investigated. Receptor numbers were assayed using tritiated QNB binding and subtracting non-specific binding. Compounds were dissolved in DMSO and DMSO was used as a control. Compounds were tested at a range of final concentrations. Compounds were also tested in the presence and absence of tamoxifen to try to distinguish an oestrogen receptor mediated mechanism.
Compounds are active when the effect on receptor expression given as a percentage increase compared to control is more than 15%.

In the case of `CC(CO)CCCC(C)C1C(O)CC2C3CC[C@H]4CC(O)CC[C@]4(C)C3CC[C@@]21C` (stereo partly shown), the “Activity (effect on expression of m2 receptors, percentage increase compared to control)” value (molar concentration 10^−5) is on record as “Active”. On the same count and under the same terms, the same measure for `CC1C(=O)OC2CC3C4CC[C@H]5CC(O)CC[C@]5(C)C4CC[C@]3(C)C21` (stereo partly shown): “Not Active”. Consider `CC1CCC2(OC1)OC1CC3C4CC[C@H]5CC(O)CC[C@]5(C)C4CC[C@]3(C)C1C2C` (stereo partly shown), for which the “Activity (effect on expression of m2 receptors, percentage increase compared to control)” value runs as follows: (molar concentration 10^−5) “Not Active Not Active”; (molar concentration 10^−6) “Not Active Not Active”. As for `CC1CCC2(OC1)OC1CC3C4CC[C@@H]5CC(O)[C@H](O)C[C@]5(C)C4CC[C@]3(C)C1C2C` (stereo partly shown), the “Activity (effect on expression of m2 receptors, percentage increase compared to control)” value (molar concentration 10^−5) is listed as “Not Active”. The same measure, in the same setting: the same measure for `CC1CCC2(OC1)OC1CC3C4CC[C@@H]5CC(O)CC[C@]5(C)C4C(=O)C[C@]3(C)C1C2C` (stereo partly shown): “Not Active”. Consider `CC1CCC2(OC1)OC1CC3C4CC=C5CC(O)CC[C@]5(C)C4CC[C@]3(C)C1C2C` (stereo partly shown), for which the “Activity (effect on expression of m2 receptors, percentage increase compared to control)” value runs as follows: (molar concentration 10^−5) “Not Active Not Active”; (molar concentration 10^−6) “Not Active Not Active”.

Take `CC1CCC2(OC1)OC1CC3C4CC=C5CC(O)C[C@@H](O)[C@]5(C)C4CC[C@]3(C)C1C2C` (stereo partly shown): the “Activity (effect on expression of m2 receptors, percentage increase compared to control)” value (molar concentration 10^−5) was “Not Active Not Active” and the “Activity (effect on expression of m2 receptors, percentage increase compared to control)” value (molar concentration 10^−6) was “Not Active Not Active”.
